This note sets out measurements from publication PMC7318222, “A Family of Water‐Immiscible, Dipolar Aprotic, Diamide Solvents from Succinic Acid” (Chemsuschem, 2020).

“Also recorded” adds a separate entry of the source.

One series can be described thus: Miscibility with water. It is filed as physicochemical. Conditions: this work.
A further series concerns human U2-OS cells. Nature of the series: CALUX cytotoxicity assay. It is filed as cell-based. Conditions: for LEC cytotoxicity: PC20, 24 h exposure. From the text: DCM ≥99.5%, chloroform ≥99.5%, DMSO ≥99.0% were purchased from VWR. N,N-diethyl-4-nitroaniline ≥98.0% was purchased from Alfa Aeser. Cyrene was supplied by Circa group. N-butylpyrrolidinone was supplied by Eastman chemicals. N,N-dimethylformamide 99.9% and N,N-dimethylacetamide 99.9% were purchased from Fischer. The flakes of Ultrason® E3020 P Polyarylethersulfone of 55,000 Da were obtained from INGE.BASF, Germany. The CALUX cell lines have been described previously.[1] They are based on human U2-OS cells (ATCC, HTB-96) stably transfected with an expression construct for the full-length human receptor under investigation, and a reporter construct consisting of multimerized responsive elements for the cognate receptor coupled to a minimal promoter element (TATA) and a luciferase gene. Cells were maintained as described previously,[2] using cell culture media and supplements from Fisher Scientific as described in the experimental procedures section. […]
(§1) In vitro reporter gene assays
(§2) The automated CALUX assays were carried out similarly as described earlier,[12] with some adaptations. In brief, the assay was performed in CO2 independent medium (Fisher Scientific, […]
(§3) supplement (Fisher Scientific, 11574466), 10 U/mL penicillin and 10 µg/mL streptomycin. A cell suspension in assay medium was made of 1 × 10^5cells/mL, and white 384-wells plates were seeded with 30 µl cell suspension/well. After 24 h, exposure medium was prepared. A dilution series in 0.5log unit increments of each test compound (in DMSO) was added to a 96-wells plate containing assay medium (2% v/v). Of this exposure mixture, 30 µl was added to the assay plates containing the CALUX cells, resulting in a final DMSO concentration of 1%. Additionally, DMSO blanks and a full dose response curve of the relevant reference compound were included on each plate. All samples were tested in triplicate. The preparation of the compound dilution series as well as the exposure of the cells were performed on a Hamilton StarLET liquid handling robot coupled to a Cytomat incubator.
Directly after exposure, plates were sealed with non-breathing plate seals (Plate sealer, easy seal transparent; Greiner-Bio-One, 676001). After 24 h the exposure medium was removed using an EL406 washer-dispenser (BioTek) and 10 µl/well triton lysisbuffer was added by the EL406.
(§4) Subsequently, the luciferase signal was measured in a luminometer (InfinitePro coupled to a Connect Stacker, both TECAN). In order to be able to detect receptor antagonism, several assays were also performed in antagonistic mode. The assay procedure was as described above, with the only exception that the EC50 concentration of the reference agonist was present during the exposure.
The luminometer data was analysed as follows; the average of the triplicate wells was determined, and the average blank (DMSO) value was subtracted. For receptor-based assays the maximum response elicited by the reference compound was set to 100% (full receptor- or pathway activation), and the other values were scaled accordingly. GraphPad Prism was used to fit a sigmoidal curve through the data (four parameters, variable slope). The PC10 concentration was reported as the lowest effect concentration (LEC), which is defined as the concentration where the response elicited by the test compound equals 10% of the maximum response of the reference compound. For antagonist- and cytotoxicity experiments, PC20 values were determined instead, which was defined as the concentration where the test compound causes a 20% decrease in the basal signal, which was […]
curve, the signal induction above background (DMSO) was determined, and the concentration where the compound elicited a 1.5-fold increase above background was used as LEC.

A further series deals with T1, GR (Homo sapiens, UniProt P04150).
T1 construct: expression construct for the full-length human receptor under investigation; expressed in transfected cells; host or cells: human U2-OS cells (ATCC HTB-96), stably transfected
T1 sequence (P04150 1-777): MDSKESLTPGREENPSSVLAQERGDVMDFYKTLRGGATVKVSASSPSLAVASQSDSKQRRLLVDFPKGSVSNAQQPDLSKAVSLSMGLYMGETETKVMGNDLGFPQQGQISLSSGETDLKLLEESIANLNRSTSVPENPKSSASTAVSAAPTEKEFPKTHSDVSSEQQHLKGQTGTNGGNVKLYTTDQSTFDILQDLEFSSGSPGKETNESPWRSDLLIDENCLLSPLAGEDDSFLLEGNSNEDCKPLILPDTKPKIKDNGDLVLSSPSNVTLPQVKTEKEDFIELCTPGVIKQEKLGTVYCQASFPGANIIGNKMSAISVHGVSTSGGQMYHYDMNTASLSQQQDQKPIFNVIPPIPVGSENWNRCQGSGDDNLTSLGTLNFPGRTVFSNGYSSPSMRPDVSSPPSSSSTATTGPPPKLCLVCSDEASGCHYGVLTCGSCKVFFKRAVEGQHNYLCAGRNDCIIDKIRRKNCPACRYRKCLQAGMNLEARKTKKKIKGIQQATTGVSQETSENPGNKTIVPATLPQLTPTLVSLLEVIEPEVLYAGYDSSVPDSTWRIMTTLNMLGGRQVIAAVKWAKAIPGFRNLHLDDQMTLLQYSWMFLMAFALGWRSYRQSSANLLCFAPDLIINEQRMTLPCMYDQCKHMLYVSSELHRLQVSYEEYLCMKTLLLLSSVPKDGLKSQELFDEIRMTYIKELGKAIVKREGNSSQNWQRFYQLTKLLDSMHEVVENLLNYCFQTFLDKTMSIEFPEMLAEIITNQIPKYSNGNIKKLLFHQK
The experiment in a line: GR-anti CALUX reporter gene assay (antagonistic mode). The settings on record: PC20, 24 h exposure. Details: key: –: no effect observed up to the highest test concentration. The series is classed as cell-based.
Description: nitroaniline ≥98.0% was purchased from Alfa Aeser. Cyrene was supplied by Circa group. N-butylpyrrolidinone was supplied by Eastman chemicals. […]
Polyarylethersulfone of 55,000 Da were obtained from INGE.BASF, Germany. The CALUX cell lines have been described previously.[1] They are based on human U2-OS cells (ATCC, HTB-96) stably transfected with an expression construct for the full-length human receptor under investigation, and a reporter construct consisting of multimerized responsive elements for the cognate receptor coupled to a minimal promoter element (TATA) and a luciferase gene. Cells were maintained as described previously,[2] using cell culture media and supplements from Fisher Scientific as described in the experimental procedures section. […]
as §1, §2
as §3, with “with” for “supplement (Fisher Scientific, 11574466), 10 U/mL penicillin and 10 µg/mL streptomycin. A cell suspension in assay medium was made of 1 × 10^5cells/mL, and white 384-wells plates were seeded with”
Directly after exposure, plates were sealed with non-breathing plate seals (Plate sealer, easy seal […]
After 24 h the exposure medium was removed using an EL406 washer-dispenser (BioTek) and 10 µl/well triton lysisbuffer was added by the EL406.
as §4
The luminometer data was analysed as follows; the average of the triplicate wells was determined, […]

Series [1] is described as follows: shake flask; GC analysis of both layers with diglyme internal standard (SI). The settings on record: not told.

Take `CCCCN(CC)C(=O)CCC(=O)N(CC)CCCC` [EBSA, N,N′‐diethyl‐N,N′‐dibutylsuccindiamide]: the Water misc. result in “Miscibility with water” was “no^[a]”. Besides, the LEC cytotoxicity in the series with human U2-OS cells is −3.1 Log M. For the same compound, the “LEC GR‐anti” value at GR is listed as “–”. The “log partition 1-octanol / water” value in series [1] is 2.72 log10 of concentration ratio (GC peak-area ratio).
For `CCCCN(CCCC)C(=O)CCC(=O)N(CCCC)CCCC` [TBSA, N,N,N′,N′‐tetrabutylsuccindiamide], the Water misc. result in “Miscibility with water” is “no^[a]”. Moreover, the LEC cytotoxicity in the series on human U2-OS cells is −3.4 Log M. Also, on GR, the “LEC GR‐anti” value is given as “–”. Besides, the “log partition 1-octanol / water” value in series [1] is listed as 3.77 log10 of concentration ratio (GC peak-area ratio).
For `CCCCN(C)C(=O)CCC(=O)N(C)CCCC` [MBSA, N,N′‐dimethyl‐N,N′‐dibutylsuccindiamide], the Water misc. entry in “Miscibility with water” is “no^[a]”. In the series on human U2-OS cells, this compound came in with an LEC cytotoxicity of −2.3 Log M. Moreover, on GR, the “LEC GR‐anti” value was “–”. Besides, the “log partition 1-octanol / water” value in series [1] is 1.65 log10 of concentration ratio (GC peak-area ratio).
For `CCCCN1CCCC1=O` [NBP, N‐Butylpyrrolidinone, reference compound] the same measures were “miscible; also recorded: yes^[a]”, −2.1 Log M, “–” and 0.99 log10 of concentration ratio (GC peak-area ratio).
For `CN1CCCC1=O` [NMP, N‐methyl‐2‐pyrrolidone, reference compound], in “Miscibility with water”, the Water misc. result was “yes^[a]”. In the series on human U2-OS cells, the “cytotoxicity lowest effect concentration (LEC)” value turned out to be 40 mM and the LEC cytotoxicity was −1.4 Log M.
